Test results taken from patent publication US20070191315A1, “Method for administering ibandronate” (priority 2006, published 2007).

System: metastatic bone pain
Assay: Multicenter, randomized, active-controlled, double-blind trial of pain (BPI worst/average pain scales)
Assay type: in vivo
Conditions: patients; ibandronic acid 6 mg IV over 15 min on Days 1, 2 and 3, then 50 mg orally daily from Day 22; 24 weeks; compared to placebo treatment
Procedure: A multicenter, randomized, active-controlled, double-blind, parallel groups trial is conducted. Patients are centrally randomized via an interactive voice response system (IVRS) to treatment either with ibandronic acid or zoledronic acid. Study treatment begins within 96 hours of randomization. Treatment continues for 24 weeks. Patients record their pain on the WORST PAIN and the AVERAGE PAIN scales of the BPI, as well as daily analgesic use, on a nightly basis. Patients record the degree to which their pain interferes with normal functioning and any opioid side-effects weekly. WHO Performance Status, quality of life based on the EORTC QLQ-C30 instrument and quality of life based on the FACT-BP, an instrument specifically designed to measure quality of life in patients with bone pain are recorded at Day 8 and Weeks 6, 12, 18 and 24 of the trial. Patients have skeletal surveys performed at Baseline and at Weeks 12 and 24 as part of the monitoring of SREs. Patients randomized to the ibandronic acid arm receive ibandronic acid 6 mg intravenously over 15 minutes on Days 1, 2 and 3 of the trial, followed by ibandronic acid 50 mg orally daily beginning on Day 22 of the study. Patients also receive a placebo infusion every 3-4 weeks, depending on the underlying chemotherapy regimens patients may be receiving. Patients who are not receiving chemotherapy receive placebo infusions every 3 weeks. […]

CCCCCN(C)CCC(O)(P(=O)(O)O)P(=O)(O)O [ibandronate, 3-(N-methyl-N-pentyl)amino-1-hydroxypropane-1,1-diphosphonic acid] was tested, and the pain scores was “significantly lower pain scores”.
